Test results reported in patent publication US8710085B2, “Pyrrolidine-1,2-dicarboxamide derivatives” (Novartis AG, priority 2008, dated 2014).

Legend:
PI3Kδ = target: T1, PI3Kδ (Homo sapiens, UniProt O00329); experiment: PI3K KinaseGlo assay, PI3Kδ; type: biochemical; conditions: 10 nM enzyme, 1 μM ATP, 30 mins, room temperature, read-out: PI3Kd/IC50
T1 construct: p85iSH2(461-568)-GGGGGG-p110δ(2-1044)-His; made in house; host or cells: baculovirus, Tn5 insect cells

PI3Kα = target: T2, PI3Kα (Homo sapiens, UniProt P42336); experiment: PI3K KinaseGlo assay, PI3Kα; type: biochemical; conditions: KinaseGlo; 10 nM enzyme, 1 μM ATP, 30 mins, room temperature; read-out: PI3Ka/IC50
T2 construct: p110α(21-1068)-His; made in house; host or cells: baculovirus, Tn5 insect cells
T2 sequence (P42336 with tags, fused parts or gaps): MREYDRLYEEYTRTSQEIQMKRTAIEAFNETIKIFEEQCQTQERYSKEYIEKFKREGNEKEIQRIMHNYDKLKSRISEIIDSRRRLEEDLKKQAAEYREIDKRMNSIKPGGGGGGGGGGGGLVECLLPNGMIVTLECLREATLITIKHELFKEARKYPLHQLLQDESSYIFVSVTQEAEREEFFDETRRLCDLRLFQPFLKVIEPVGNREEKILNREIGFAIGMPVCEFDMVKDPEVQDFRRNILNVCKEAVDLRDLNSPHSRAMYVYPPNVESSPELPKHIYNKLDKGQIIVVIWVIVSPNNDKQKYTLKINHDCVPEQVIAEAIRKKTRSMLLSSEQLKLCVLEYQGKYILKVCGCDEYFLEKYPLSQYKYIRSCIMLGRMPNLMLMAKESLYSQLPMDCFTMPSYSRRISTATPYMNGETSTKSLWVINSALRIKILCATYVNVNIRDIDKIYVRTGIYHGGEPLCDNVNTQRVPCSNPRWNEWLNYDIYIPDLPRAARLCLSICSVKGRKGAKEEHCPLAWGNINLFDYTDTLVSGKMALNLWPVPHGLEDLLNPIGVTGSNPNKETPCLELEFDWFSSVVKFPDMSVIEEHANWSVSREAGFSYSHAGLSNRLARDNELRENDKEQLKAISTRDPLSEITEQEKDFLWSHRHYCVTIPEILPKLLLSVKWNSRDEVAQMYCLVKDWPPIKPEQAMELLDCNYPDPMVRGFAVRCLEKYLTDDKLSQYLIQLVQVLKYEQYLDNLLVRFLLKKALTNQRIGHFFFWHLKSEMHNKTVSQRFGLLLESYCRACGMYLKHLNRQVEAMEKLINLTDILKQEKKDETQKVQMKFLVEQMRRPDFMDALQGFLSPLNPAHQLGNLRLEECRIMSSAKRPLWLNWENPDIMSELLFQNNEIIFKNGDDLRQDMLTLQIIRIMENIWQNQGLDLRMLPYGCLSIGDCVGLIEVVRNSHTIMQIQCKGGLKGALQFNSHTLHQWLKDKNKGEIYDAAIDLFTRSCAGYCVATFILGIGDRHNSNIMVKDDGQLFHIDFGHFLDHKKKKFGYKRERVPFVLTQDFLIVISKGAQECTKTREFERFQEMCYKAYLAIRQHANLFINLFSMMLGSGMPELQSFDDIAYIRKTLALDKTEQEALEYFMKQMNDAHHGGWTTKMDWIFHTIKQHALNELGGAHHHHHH

PI3Kβ = target: T3, PI3Kβ (Homo sapiens, UniProt P42338); experiment: PI3K KinaseGlo assay, PI3Kβ; type: biochemical; conditions: KinaseGlo; 25 nM enzyme, 1 μM ATP, 30 mins, room temperature; read-out: PI3Kb/IC50
T3 construct: p110β(2-1070)-His; made in house; host or cells: baculovirus, Tn5 insect cells
T3 sequence (P42338 with tags, fused parts or gaps): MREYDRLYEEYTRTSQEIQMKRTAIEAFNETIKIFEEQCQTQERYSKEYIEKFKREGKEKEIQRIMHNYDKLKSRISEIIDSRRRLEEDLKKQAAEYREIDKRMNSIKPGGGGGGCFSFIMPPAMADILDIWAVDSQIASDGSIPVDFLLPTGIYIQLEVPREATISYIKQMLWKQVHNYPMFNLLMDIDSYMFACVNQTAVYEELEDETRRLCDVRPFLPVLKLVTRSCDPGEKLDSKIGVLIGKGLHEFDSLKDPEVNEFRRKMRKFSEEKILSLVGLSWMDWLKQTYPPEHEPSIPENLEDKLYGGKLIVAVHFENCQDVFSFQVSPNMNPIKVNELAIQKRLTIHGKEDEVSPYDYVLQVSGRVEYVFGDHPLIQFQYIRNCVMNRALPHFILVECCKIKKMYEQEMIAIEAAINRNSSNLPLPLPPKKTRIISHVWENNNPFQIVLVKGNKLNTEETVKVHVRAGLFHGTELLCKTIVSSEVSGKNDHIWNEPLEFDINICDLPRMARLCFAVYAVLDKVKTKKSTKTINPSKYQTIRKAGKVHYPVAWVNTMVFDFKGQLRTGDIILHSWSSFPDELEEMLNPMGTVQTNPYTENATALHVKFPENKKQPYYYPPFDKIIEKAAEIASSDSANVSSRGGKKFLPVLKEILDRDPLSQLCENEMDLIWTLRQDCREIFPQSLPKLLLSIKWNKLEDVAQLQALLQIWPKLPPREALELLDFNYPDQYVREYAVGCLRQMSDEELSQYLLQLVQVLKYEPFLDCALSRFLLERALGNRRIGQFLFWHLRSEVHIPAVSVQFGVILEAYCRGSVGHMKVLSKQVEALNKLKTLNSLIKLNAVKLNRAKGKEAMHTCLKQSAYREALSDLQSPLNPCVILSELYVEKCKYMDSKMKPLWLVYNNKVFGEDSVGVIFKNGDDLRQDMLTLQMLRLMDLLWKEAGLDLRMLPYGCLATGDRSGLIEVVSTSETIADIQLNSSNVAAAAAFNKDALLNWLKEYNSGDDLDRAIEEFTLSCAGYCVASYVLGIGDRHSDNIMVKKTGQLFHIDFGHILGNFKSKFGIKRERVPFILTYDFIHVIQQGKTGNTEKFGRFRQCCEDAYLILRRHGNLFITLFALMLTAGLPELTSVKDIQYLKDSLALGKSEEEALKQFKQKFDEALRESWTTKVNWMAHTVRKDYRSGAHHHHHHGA
Experimental: (§1) PI3K KinaseGlo assay: 50 mL of compound dilutions were dispensed onto black 384-well low volume Non Binding Styrene (NBS) plates (Costar Cat. No. NBS#3676). L-a-phosphatidylinositol (PI), provided as 10 mg/ml solution in methanol, was transferred into a glass tube and dried under nitrogen beam. It was then resuspended in 3% OctylGlucoside (OG) by vortexing and stored at 4° C. The KinaseGlo Luminescent Kinase Assay (Promega, Madison/WI, USA) is a homogeneous HTS method of measuring kinase activity by quantifying the amount of ATP remaining in solution following a kinase reaction.
(§2) 5 μL of a mix of PI/OG with the PI3K subtype were added (Table 1). Kinase reactions were started by addition of 5 μl of ATP-mix containing in a final volume 10 μL 10 mM TRIS-HCl pH 7.5, 3 mM MgCl2, 50 mM NaCl, 0.05% CHAPS, 1 mM DTT and 1 μM ATP, and occurred at room temperature. […] The standard was used as a reference compound and included in all assay plates in the form of 16 dilution points in duplicate.
The PI3Kα, PI3Kβ and PI3Kδ constructs are fusion of p85α iSH2 domain and the respective p110 isoforms. The p85α fragment and p110 isoform genes were generated by PCR from first strand cDNA generated by RT-PCR from commercial RNA from placenta, testis and brain as described below. The PI3Kγ construct was obtained from Roger Williams lab, MRC Laboratory of Molecular Biology, Cambridge, UK (November, 2003) and is described (Pacold, Michael E.; Suire, Sabine; Perisic, Olga; Lara-Gonzalez, Samuel; Davis, Colin T.; Walker, Edward H.; Hawkins, Phillip T.; Stephens, Len; Eccleston, John F.; Williams, Roger L. Crystal structure and functional analysis of Ras binding to its effector phosphoinositide 3-kinase gamma. Cell (2000), 103(6), 931-943).
BV949: PCR products for the inter SH2 domain (iSH2) of the p85 PI3Kα, PI13Kβ and PI3Kδ subunit and for the full-length p110β subunit were generated and fused by overlapping PCR. […] The p11013 fragment was obtained by PCR using as template a p110β clone (from unknown source that was sequence verified) using primers gwG130-p04 (5′-[…]-[…]-3′) (SEQ ID NO: 9) which contains linker sequences and the 5′ end of p110β and gwG130-p06 (5′-[…]-[…]-3′) (SEQ ID NO: 10) which contains sequences of the 3′ end of p110-β fused to a Histidine tag. […] This final product was recombined in a Gateway (Invitrogen) […] into the donor vector pDONR201 (Invitrogen) to generate the ORF253 entry clone. This clone was verified by sequencing and used in a Gateway LR reaction (Invitrogen) to transfer the insert into the Gateway adapted pBlueBac4.5 (Invitrogen) vector for generation of the baculovirus expression vector LR280.
(§3) PI3Kα, PI3Kβ and PI3Kγ were purified in two chromatographic steps: immobilized metal affinity chromatography (IMAC) on a Ni sepharose resin (GE Healthcare) and gel filtration utilizing a Superdex 200 26/60 column (GE Healthcare). All buffers were chilled to 4° C. and lysis was performed chilled on ice. Column fractionation was performed at room temperature. All buffers used to purify PI3Kβ contained 0.05% Triton X100 in addition to what is described below.
The lysate was centrifuged at 45,000 g for 30 minutes, and the supernatant was loaded onto a pre-equilibrated IMAC column (3 mL resin/100 mL lysate). […] Protein was eluted with 20 mM Tris-Cl, pH 7.5, 0.5 M NaCl, 5% glycerol, 250 mM imidazole, 1 mM NaF, 0.1 μg/mL OAA, 5 mM BME, 1× Complete protease inhibitor cocktail—EDTA-free. Pertinent fractions were analyzed by SDS-PAGE and pooled accordingly. The protein was further purified by gel filtration on a Superdex 200 26/60 column equilibrated in 20 mM Tris-Cl, pH 7.5, 0.5 M NaCl, 5% glycerol, 1 mM NaF, 5 mM DTT, 1× Complete protease inhibitor cocktail—EDTA-free. Pertinent fractions were analyzed by SDS-PAGE and pooled accordingly.

PI3Kγ = target: T4, PI3Kγ (Homo sapiens, UniProt P48736, Q459R); experiment: PI3K KinaseGlo assay, PI3Kγ; type: biochemical; conditions: 150 nM enzyme, 1 μM ATP, 90 mins, room temperature, read-out: PI3Kg/IC50
T4 construct: p110γ(Δ143-[Met144-1102])-His; made in house; host or cells: Tn5 insect cells; construct from Roger Williams lab, MRC LMB
T4 sequence (P48736 with tags, fused parts or gaps Q459R): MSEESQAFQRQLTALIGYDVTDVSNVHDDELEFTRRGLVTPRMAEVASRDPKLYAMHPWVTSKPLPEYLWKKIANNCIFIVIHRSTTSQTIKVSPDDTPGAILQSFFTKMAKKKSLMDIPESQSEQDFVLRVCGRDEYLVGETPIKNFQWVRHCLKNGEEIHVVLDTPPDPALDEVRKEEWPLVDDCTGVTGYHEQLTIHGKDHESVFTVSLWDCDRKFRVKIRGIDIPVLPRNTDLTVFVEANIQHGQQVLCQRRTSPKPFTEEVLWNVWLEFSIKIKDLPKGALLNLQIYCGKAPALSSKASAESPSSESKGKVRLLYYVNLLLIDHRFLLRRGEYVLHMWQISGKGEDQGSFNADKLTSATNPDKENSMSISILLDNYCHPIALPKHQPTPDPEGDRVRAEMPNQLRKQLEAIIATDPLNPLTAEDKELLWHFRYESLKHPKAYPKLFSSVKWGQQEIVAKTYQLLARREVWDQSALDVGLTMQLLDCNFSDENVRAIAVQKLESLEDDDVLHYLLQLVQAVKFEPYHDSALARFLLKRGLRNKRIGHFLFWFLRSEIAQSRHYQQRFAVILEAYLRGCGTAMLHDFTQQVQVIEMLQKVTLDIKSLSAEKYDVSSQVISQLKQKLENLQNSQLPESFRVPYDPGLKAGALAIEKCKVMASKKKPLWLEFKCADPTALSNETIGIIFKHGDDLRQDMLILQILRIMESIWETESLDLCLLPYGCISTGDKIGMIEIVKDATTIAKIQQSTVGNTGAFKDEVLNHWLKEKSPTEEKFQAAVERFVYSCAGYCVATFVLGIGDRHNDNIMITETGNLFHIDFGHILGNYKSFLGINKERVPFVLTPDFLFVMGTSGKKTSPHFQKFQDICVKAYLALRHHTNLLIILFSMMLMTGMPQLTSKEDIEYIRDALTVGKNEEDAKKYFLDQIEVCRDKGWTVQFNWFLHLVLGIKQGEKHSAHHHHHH
Experimental: as §1, with “L-a-phosphatidylinositol” for “PI3K KinaseGlo assay: 50 mL of compound dilutions were dispensed onto black 384-well low volume Non Binding Styrene (NBS) plates (Costar Cat. No. NBS#3676). L-a-phosphatidylinositol”
as §2, with “duplicate. […]” for “duplicate.”
as §3
The lysate was centrifuged at 45,000 g for 30 minutes, and the supernatant was loaded onto a pre-equilibrated IMAC column (3 mL resin/100 mL lysate). […] Protein was eluted with 20 mM Tris-Cl, pH 7.5, 0.5 M NaCl, 5% glycerol, 250 mM imidazole, 1 mM NaF, 0.1 μg/mL OAA, 5 mM BME, 1× Complete protease inhibitor cocktail—EDTA-free. Pertinent fractions were analyzed by SDS-PAGE and pooled accordingly. The protein was further purified by gel filtration on a Superdex 200 26/60 column equilibrated in 20 mM Tris-Cl, pH 7.5, 0.5 M NaCl, 5% glycerol, 1 mM NaF, 5 mM DTT, 1× Complete protease inhibitor cocktail—EDTA-free. Pertinent fractions were analyzed by SDS-PAGE and pooled accordingly. An equal volume of Dialysis Buffer (20 mM Tris-Cl, pH 7.5, 500 mM NaCl, 50% glycerol, 5 mM NaF, 5 mM DTT) was added to the pool and than dialyzed against Dialysis Buffer two changes (one change overnight). Protein was stored at −20° C.

T1 sequence (O00329 with tags, fused parts or gaps): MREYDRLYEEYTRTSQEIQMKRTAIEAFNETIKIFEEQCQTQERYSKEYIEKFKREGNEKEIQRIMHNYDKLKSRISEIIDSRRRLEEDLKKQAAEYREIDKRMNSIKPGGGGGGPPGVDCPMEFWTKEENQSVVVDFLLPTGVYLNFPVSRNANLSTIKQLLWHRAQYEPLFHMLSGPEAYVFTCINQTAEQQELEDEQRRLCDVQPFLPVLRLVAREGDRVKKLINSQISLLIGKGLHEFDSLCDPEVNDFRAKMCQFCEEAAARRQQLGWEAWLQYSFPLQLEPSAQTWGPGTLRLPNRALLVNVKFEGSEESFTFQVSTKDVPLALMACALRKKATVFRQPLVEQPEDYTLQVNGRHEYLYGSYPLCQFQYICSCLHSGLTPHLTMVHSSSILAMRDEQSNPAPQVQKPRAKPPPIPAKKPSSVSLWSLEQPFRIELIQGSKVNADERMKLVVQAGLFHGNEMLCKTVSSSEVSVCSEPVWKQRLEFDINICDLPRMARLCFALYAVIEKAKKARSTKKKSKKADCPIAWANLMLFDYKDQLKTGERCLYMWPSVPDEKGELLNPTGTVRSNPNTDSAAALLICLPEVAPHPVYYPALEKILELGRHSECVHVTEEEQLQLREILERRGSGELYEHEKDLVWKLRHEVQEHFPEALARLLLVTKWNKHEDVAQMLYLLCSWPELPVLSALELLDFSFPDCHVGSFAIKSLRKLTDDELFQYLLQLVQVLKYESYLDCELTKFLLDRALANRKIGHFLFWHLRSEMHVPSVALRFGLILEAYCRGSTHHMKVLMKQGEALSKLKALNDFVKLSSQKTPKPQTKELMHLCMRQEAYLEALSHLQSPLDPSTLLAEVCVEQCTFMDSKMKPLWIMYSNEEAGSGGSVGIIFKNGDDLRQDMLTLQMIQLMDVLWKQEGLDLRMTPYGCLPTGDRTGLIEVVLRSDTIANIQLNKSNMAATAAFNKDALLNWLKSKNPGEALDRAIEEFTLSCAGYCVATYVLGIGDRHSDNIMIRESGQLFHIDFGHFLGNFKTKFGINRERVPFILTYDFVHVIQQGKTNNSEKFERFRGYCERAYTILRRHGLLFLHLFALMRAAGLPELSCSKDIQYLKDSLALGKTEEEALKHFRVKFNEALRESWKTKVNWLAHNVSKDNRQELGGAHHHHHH

IC50 (PI3Kδ) | IC50 (PI3Kα) | IC50 (PI3Kβ) | IC50 (PI3Kγ) | melting point | SMILES
32 nM | 10 nM | 692 nM | 451 nM | – | Cc1nc(NC(=O)N2CCC[C@H]2C(N)=O)sc1-c1ccnc(C(C)(C)C(F)(F)F)n1 [Example 64, (S)-Pyrrolidine-1,2-dicarboxylic acid 2-amide 1-({4-methyl-5-[2-(2,2,2-trifluoro-1,1-dimethyl-ethyl)-pyrimidin-4-yl]-thiazol-2-yl}-amide)]
298 nM | 13 nM | 2740 nM | 435 nM | – | Cc1nc(NC(=O)N2CCC[C@H]2C(N)=O)sc1-c1cncc(C2CC2)n1 [Example 66, (S)-Pyrrolidine-1,2-dicarboxylic acid 2-amide 1-{[5-(6-cyclopropyl-pyrazin-2-yl)-4-methyl-thiazol-2-yl]-amide}]
– | – | – | – | 220 to 222 °C | Cc1nc(NC(=O)N2CCC[C@H]2C(N)=O)sc1-c1ccnc(CC2CC2)n1 [Example 70, (S)-Pyrrolidine-1,2-dicarboxylic acid 2-amide 1-{[5-(2-cyclopropylmethyl-pyrimidin-4-yl)-4-methyl-thiazol-2-yl]-amide}]
– | – | – | – | 187 to 190 °C | Cc1nc(NC(=O)N2CCC[C@H]2C(N)=O)sc1-c1ccnc(C(C)(C)CF)n1 [Example 71, (S)-Pyrrolidine-1,2-dicarboxylic acid 2-amide 1-({5-[2-(2-fluoro-1,1-dimethylethyl)-pyrimidin-4-yl]-4-methyl-thiazol-2-yl}-amide)]
– | – | – | – | 197 to 199 °C | Cc1cc(-c2sc(NC(=O)N3CCC[C@H]3C(N)=O)nc2C)nc(C(C)(C)C)n1 [Example 72, (S)-Pyrrolidine-1,2-dicarboxylic acid 2-amide 1-{[5-(2-tert-butyl-6-methylpyrimidin-4-yl)-4-methyl-thiazol-2-yl]-amide}]
